# Data: paper PMC5389473, “DNA polymerase β contains a functional nuclear localization signal at its N-terminus” (Nucleic Acids Research, 2016)
# Peptide text beside a SMILES is read from it. * marks the point of attachment. FITC = O=C1OC2(c3ccc(O)cc3Oc3cc(O)ccc32)c2ccc(NC(=S)*)cc21
# Key:
# [1] = target: T1, hImpα5ΔIBB (Homo sapiens, UniProt P52294); assay: Ligand displacement (competition) of FITC-labeled NLS peptide by lyase domain; format: binding; conditions: relative to value with mImpα1ΔIBB
# T1 construct: human Importin α5, corresponding to residues 66–512, (hImpα5ΔIBB); His (C)
# Experimental: His-tagged mImpα1 with the Importin β binding domain (IBB) deleted (mImpα1ΔIBB) and its major pocket variant (mImpα1ΔIBB[W184R/W231R]) were prepared as described previously ([56]). The minor binding pocket double mutant (mImpα1ΔIBB[W357R/W399R]) was created using the QuikChange kit (Agilent). C-terminal His-tagged human Importin α5, corresponding to residues 66–512, (hImpα5ΔIBB) was purchased from Genscript and cloned into the pET30 expression vector. All clones were sequence verified. mImpα1ΔIBB[W357R/W399R] and hImpα5ΔIBB were expressed and purified by the IMAC and gel filtration protocol previously described ([56]). Protein concentrations were determined by the Edelhoch procedure ([63]).
# (§1) Apparent peptide dissociation constants were determined based on fluorescence polarization measurements using the fluorescein-labeled pol β NLS peptide as previously described ([56]). The binding constants for the interaction of pol β lyase domain with the Importin α constructs were determined by displacement of the FITC-labeled NLS peptide using a competition assay as previously described ([56]).
# Figure 3. Binding of the pol β lyase domain to mImpα1ΔIBB and hImpα5ΔIBB. […] The initial fluorescence polarization value corresponds to the fraction of NLS peptide complexed with Impα, so that 100 would correspond to a fully complexed peptide. […]
# [2] = tested on: mImpα1ΔIBB; assay: Gel filtration of lyase domain / mImpα1ΔIBB mixture; format: binding, murine; conditions: 2.8-fold excess lyase domain, HiLoad 26/60 Superdex 200, 20 mM Tris-HCl pH 7.8, 125 mM NaCl, 2 mM DTT, 1 mM EDTA
# Experimental: (§2) For an initial assessment of binding, a sample of mImpα1ΔIBB was mixed with a 2.8-fold excess of pol β lyase domain and the sample was eluted on a HiLoad 26/60 Superdex 200 column (GE Healthcare) with a buffer containing 20 mM Tris-HCl, pH 7.8, 125 mM NaCl, 2 mM DTT, 1 mM ethylenediaminetetraacetic acid. For the analytical gel filtration experiments, hImpα5ΔIBB was mixed with 2-fold excess of wild-type or the NLS variant pol β(R4S,K5S) lyase domain and the samples were eluted on a Superdex 200 10/300 GL column (GE Healthcare) with a buffer containing 20 mM HEPES, 125 mM NaCl, 5mM DTT, 1mM ethylenediaminetetraacetic acid, pH 7.4.
# Supplementary Figure S2. Interaction of pol β lyase domain with mImpα1DIBB. A sample of mImpα1DIBB was mixed with 2.8-fold excess of pol b lyase domain and the sample was eluted on a HiLoad 26/60 Superdex 200 column (GE Healthcare) with a buffer containing 20 mM Tris-HCL, pH 7.8, […]
# 125 mM NaCl, 2 mM DTT, 1 mM EDTA. […]
# which contain both proteins while the excess pol b lyase domain elutes in fractions 41-43.
# (1 picture or pasted object on this page, not shown here)
# [3] = target: T1, hImpα5ΔIBB; assay: Analytical gel filtration of lyase domain / hImpα5ΔIBB mixtures; format: binding; conditions: 2-fold excess lyase domain, Superdex 200 10/300 GL, 1 ml/min, 20 mM HEPES, 125 mM NaCl, 5 mM DTT, 1 mM EDTA, pH 7.4
# Experimental: as §2
# Supplementary Figure S4. Interaction of the pol β lyase domain with Impα5. Analytical gel filtration experiments performed on mixtures of hImpa5DIBB and either wild-type or pol b(R4S,K5S) lyase domain.
# For these experiments, hImpa5DIBB was mixed with 2-fold excess of wild-type or the NLS variant pol b(R4S,K5S) lyase domain and the samples were eluted at a flow rate of 1 ml/min on a Superdex 200 10/300 GL column (GE Healthcare) with a buffer containing 20 mM HEPES, 125 mM NaCl, 5mM DTT, […]
# than Impa5DIBB alone; C) a mixture of Impa5DIBB with pol b(R4S,K5S) lyase domain elutes as two […]
# [4] = tested on: mImpα1ΔIBB; assay: 1H-15N HSQC NMR binding study; set-up: species or system murine; conditions: 130 μM protein, equal concentration mImpα1ΔIBB; 50 mM Tris-d11 pH 7.6, 150 mM KCl; 25°C
# Experimental: For the mImpα1ΔIBB binding experiments, the samples contained 0.13 mM U-[^2H,^15N]pol β and 0.13 mM mImpα1ΔIBB in a buffer consisting of 50 mM Tris-d11 (pH 7.6), 150 mM KCl, 1 mM CDTA, 1 mM dithiothreitol (DTT), 0.1 mM AEBSF, 0.04% NaN3 and 50 μM DSS as an internal chemical shift standard, with 10% D2O for ^1H-^15N HSQC experiments and 100% D2O for ^1H-^13C HSQC experiments. For studies of the effects of the R4S,K5S mutation on pol β structure and function, the [methyl-^13C]methionine-labeled pol β samples contained 0.1 mM pol β or the NLS-variant in the above 100% D2O buffer along with 0.11 mM of a 1-nucleotide gapped double-hairpin DNA substrate and 0.14 mM of the non-hydrolyzable nucleoside triphosphate substrate dAPCPP. Nuclear magnetic resonance (NMR) experiments were performed at 25°C on a Varian UNITY INOVA 600 or 800 MHz NMR spectrometer, using a 5 mm Varian ^1H{^13C,^15N} triple-resonance room-temperature or Cold Probe, equipped with actively shielded Z-gradients. The ^1H-^13C HSQC spectra were acquired using Varian's gChsqc sequence. The spectra were processed using NMRPipe version 2.1 ([64]) and analyzed using NMRView version 5.0.4 ([65]). All spectra were processed using squared cosine bell apodization functions in all dimensions and forward-backward linear prediction in the indirect dimension ([66]).
# Figure 1. […]
# [5] = target: T2, mImpα1ΔIBB (Mus musculus, UniProt P52293); assay: Fluorescence polarization, direct binding of FITC-labeled pol β NLS peptide; set-up: species or system murine; conditions: abstract, peptide corresponding to pol β residues 2–13
# T2 construct: His; made in house
# Text: The fluorescein-labeled pol β NLS peptide: S^3[…]^14-Lys(FITC), used for fluorescence polarization assays, was obtained from Genscript at a purity level of > 90%. Methyl methanesulfonate (MMS) was from Sigma-Aldrich. Following a strategy used previously ([61]), we studied a pol β complex with a double-hairpin that forms a one-nucleotide gapped DNA substrate with the following sequence: 5΄-^[…]-3΄ (underlined nucleotide is in the gap). The oligonucleotide was from Oligos Etc., Wilsonville, OR, USA. The non-hydrolyzable deoxynucleoside triphosphate 2΄-deoxyadenosine-5΄-[(α,β)-methyleno]triphosphate (dAPCPP) was obtained from Jena Bioscience.
# His-tagged mImpα1 with the Importin β binding domain (IBB) deleted (mImpα1ΔIBB) and its major pocket variant (mImpα1ΔIBB[W184R/W231R]) were prepared as described previously ([56]). […] Protein concentrations were determined by the Edelhoch procedure ([63]).
# as §1
# T1 sequence (P52294 66-512, stated change not applied): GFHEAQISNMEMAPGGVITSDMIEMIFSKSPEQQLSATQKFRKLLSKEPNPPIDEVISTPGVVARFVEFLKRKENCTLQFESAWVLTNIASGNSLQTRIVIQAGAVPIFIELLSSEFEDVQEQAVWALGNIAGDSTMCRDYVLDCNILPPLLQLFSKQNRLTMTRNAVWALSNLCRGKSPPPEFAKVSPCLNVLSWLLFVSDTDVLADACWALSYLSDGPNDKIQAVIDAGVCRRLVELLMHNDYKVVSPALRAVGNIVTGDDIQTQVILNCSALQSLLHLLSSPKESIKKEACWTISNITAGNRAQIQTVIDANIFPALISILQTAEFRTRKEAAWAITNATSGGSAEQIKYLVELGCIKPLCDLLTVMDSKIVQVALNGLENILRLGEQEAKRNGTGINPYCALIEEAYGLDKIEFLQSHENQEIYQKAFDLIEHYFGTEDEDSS
compound,measurement,setting,value
Pol β lyase domain: N-terminal lyase domain of pol β (residues 2–87),"increase in affinity, hImpα5ΔIBB vs mImpα1ΔIBB",[1],8 fold
same,complex formation by gel filtration,[2],indicated an interaction between the two proteins
same,complex formation by gel filtration,[2]; listed as pol b lyase domain,the complex elutes in fractions 28-32
same,complex formation by analytical gel filtration,[3]; listed as pol b lyase domain,a complex of Impa5DIBB with pol b lyase domain elutes earlier
same,complex formation by analytical gel filtration,[3]; listed as wild-type lyase domain,does elute as a complex
same,effect of mImpα1ΔIBB on 1H-15N HSQC resonances,[4],broadened lyase domain amide resonances
CC(C)C[C@H](NC(=O)[C@@H](NC(=O)[C@H](CCC(=O)O)NC(=O)[C@H](CCC(N)=O)NC(=O)[C@@H]1CCCN1C(=O)[C@H](C)NC(=O)[C@H](CCCCN)NC(=O)[C@H](CCCNC(=N)N)NC(=O)[C@H](CCCCN)NC(=O)[C@@H](N)CO)[C@@H](C)O)C(=O)N[C@@H](CC(N)=O)C(=O)NCC(=O)NCC(=O)N[C@@H](CCCCNC(=S)Nc1ccc2c(c1)C(=O)OC21c2ccc(O)cc2Oc2cc(O)ccc21)C(=O)O (H-SKRKAPQETLNGGK(FITC)-OH),Kd (in words),[5],low micromolar Kd
